Experimental data published in patent publication US9149056B2, “Compositions and methods relating to carotenoids” (The Iams Company, priority 2011, dated 2015).

How the values were obtained:
[1] = test system: Caco-2 human intestinal cells; format: in vitro ADME; conditions: Caco-2, 18 h
Method: The interactions among beta-carotene (B), lutein (L), and astaxanthin (A) were examined using a Caco-2 cell model.
Caco-2 human intestinal cells were grown and maintained on transwell inserts (3.0 μm pores) according to protocol in Failla M L., Chitchumroonchokchai C. (2005) In vitro models as tools for screening the relative bioavailabilities of provitamin A carotenoids in foods. HarvestPlus Technical Monograph Series 3. 32 p. www.harvestplus.org/pdfs/tech03.pdf. Cultures were used at 21 days post-confluency (dpc).
The stock synthetic micelles (SM) containing either β-carotene (B), lutein (L), or astaxanthin (A) was prepared as described by Chitchumroonchokchai et al. (2004).
Treated cells were incubated in humidified environment of 95% air, 5% CO2 at 37° C. for 18 hours before spent medium in apical chamber (AP) and basolateral medium (BL) were collected. All samples were frozen at −80° C. under nitrogen until analysis. Carotenoid analysis in media and cells were quantified as described by Chitchumroonchokchai (See Chitchumroonchokchai C., Schwartz S J., Failla M L. Assessment of lutein bioavailability from meals and supplement using simulated digestion and Caco-2 human intestinal cells. J Nutr. 2004; 134:2280-2286). Protein content of cells was determined by the bicinchoninic acid assay (Pierce—www.piercenet.com/files/1296 as8.pdf). […]

Caco-2 cells = format: in vitro ADME; conditions: human, Caco-2, 4 h
Text: An in vitro digestion coupled with intestinal culture model was developed to mimic the in vivo absorption of carotenoids. It is important to note that absorption as determined by in vitro digestion is highly correlated with data derived by sampling small intestinal luminal contents from human subjects fed carotenoid rich vegetables and bioavailability data from published human studies.
The interactions among beta-carotene (B), lutein (L), and astaxanthin (A) or astaxanthin ester (AE) were examined using the coupled simulated digestion/Caco-2 cell model. Cellular carotenoids after four hour incubation with micelles generated during simulated digestion of carotenoid-rich oil are presented in Table 2 below.
Simulated digestion: Non-fat yogurt (2.7 g) was homogenized in 10 mL 120 mM salt solution. The mixture was transferred to 50 mL glass test tube. Carotenoid rich oil was carefully added for each reaction (6 replicates per test oil), and total volume of oil was adjusted to 300 μL using soybean oil. The procedure for the simulated digestion followed the standard protocol (See Failla M L., Chitchumroonchokchai C. (2005) In vitro models as tools for screening the relative bioavailabilities of provitamin A carotenoids in foods. HarvestPlus Technical Monograph Series 3. 32 p. www.harvestplus.org/pdfs/tech03.pdf), except that reactions contained pancreatic enzymes and bile extract. […] After completing gastric and small intestinal digestion, an aliquot (9 ml.) of digesta was centrifuged at 12,000×g, 4° C. for 45 min. to isolate aqueous fraction containing micellar carotenoids from residual undigested materials. The aqueous fraction was passed through syringe filter (0.22 μm) to determine carotenoids that partitioned into either aqueous or micellar phase. Aliquots of digesta and aqueous fraction were stored at −20° C. for a maximum of one week before extraction. Beta-carotene and lutein was quantified according to Chitchumrronchokchai et al. (See Chitchumroonchokchai C., Schwartz S J., Failla M L. Assessment of lutein bioavailability from meals and supplement using simulated digestion and Caco-2 human intestinal cells. J Nutr. 2004; 134:2280-2286), and astaxanthin was measured as described in Lin W C et al. (Lin W C, Chien J T, Chen B H. Determination of carotenoids in spear shrimp shells (Parapenaeopsis hardwickii) by liquid chromatography. J Agric Food Chem. 2005 Jun. 29; 53(13):5144-9).
Cell uptake of carotenoids from micelles generated during digestion of oil enriched with individual carotenoids or mixtures of carotenoids: Caco-2 cells (HTB37; passages 25-28) obtained from ATCC ([…]) at passage 19 were maintained in 6-well plastic dishes. The cells were cultured in complete DMEM plus 15% heat inactivated FBS during replication phase. […]

SMILES | % Increase in Carotenoid Cellular Uptake Compared to Single Carotenoid, L [1] [%] | % Carotenoid Cellular Uptake, L (Caco-2 cells) [%] | % Increase in Carotenoid Cellular Uptake, L (Caco-2 cells) [%] | % Increase in Carotenoid Cellular Uptake Compared to Single Carotenoid, B [1] [%] | % Carotenoid Cellular Uptake, B (Caco-2 cells) [%] | % Increase in Carotenoid Cellular Uptake, B (Caco-2 cells) [%]
CC1=C[C@H](O)CC(C)(C)[C@H]1/C=C/C(C)=C/C=C/C(C)=C/C=C/C=C(C)/C=C/C=C(C)/C=C/C1=C(C)C[C@@H](O)CC1(C)C [Lutein, lutein] | 0.00 | 6.02 | 0.00 |  |  | 
CC1=C(/C=C/C(C)=C/C=C/C(C)=C/C=C/C=C(C)/C=C/C=C(C)/C=C/C2=C(C)CCCC2(C)C)C(C)(C)CCC1 [Beta-carotene, beta-carotene] |  |  |  | 0.00 | 5.70 | 0.00
